This is an account of results in patent US20040038861A1, “Methods and compositions for normalizing lipid levels in mammalian tissues” (priority 2001, published 2004).

One experiment deals with T1, ramp 1/C1ins− receptor (Mus musculus, UniProt Q60755+Q9WTJ5).
T1 construct: expressed in transfected cells; host or cells: L6 myoblasts (ATCC), transient co-transfection of pcDNA3.1 plasmids
T1 sequence (Q60755 42-496 isoform Q60755-2 limits assumed): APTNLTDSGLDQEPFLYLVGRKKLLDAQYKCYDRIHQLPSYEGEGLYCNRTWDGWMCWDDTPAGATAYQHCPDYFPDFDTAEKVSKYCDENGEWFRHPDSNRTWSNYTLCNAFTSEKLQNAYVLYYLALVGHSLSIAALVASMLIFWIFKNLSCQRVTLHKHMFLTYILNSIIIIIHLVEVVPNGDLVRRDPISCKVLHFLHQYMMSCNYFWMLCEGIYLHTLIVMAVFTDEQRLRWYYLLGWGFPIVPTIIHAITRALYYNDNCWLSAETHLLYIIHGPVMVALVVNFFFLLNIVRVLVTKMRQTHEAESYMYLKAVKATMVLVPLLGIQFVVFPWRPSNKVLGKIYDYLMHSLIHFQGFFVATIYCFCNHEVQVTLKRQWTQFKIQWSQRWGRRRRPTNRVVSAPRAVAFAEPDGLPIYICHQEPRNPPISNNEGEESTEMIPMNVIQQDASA
T1 sequence (Q9WTJ5 27-148 partner): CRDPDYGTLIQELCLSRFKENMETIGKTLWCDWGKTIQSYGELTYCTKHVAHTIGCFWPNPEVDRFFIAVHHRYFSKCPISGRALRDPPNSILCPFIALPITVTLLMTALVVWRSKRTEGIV
In words: cAMP production in L6 myoblasts co-transfected with ramp 1 and C1ins−. In kind it is cell-based, murine. The conditions noted are these: 15 min, FIG. 10. How it is done: Transfection of L6 myoblasts and cos-7 cells, and analysis of radioligand binding. L6 myoblasts and cos-7 cells were obtained from ATCC. Both cell lines were cultered in Dulbecco's modified Eagle's medium (DMEM; Gibco/BRL, high glucose) supplemented with 10% fetal calf serum (Gibco/BRL, Gaithersburg, Md.), L-glutamine (2 mM), penicillin (100 U/ml; Sigma), streptomycin ([…]; Sigma), saline (0.85%), under 5% CO2/95% air at 37° C. The day before transfection, cells were trypsinised and seeded into six-well plates at a density of 2.9×10^5 cells/well in the same medium. For transfection, cells were incubated with a mixture comprising 1 μg each of Qiagen-purified (Qiagen, Valencia, Calif.) plasmids containing C1ins− with either ramp 1 or ramp 3, and Fugene reagent (6 μl; Boehringer Mannheim) in Opti-Mem I medium (Gibco/BRL). The complex was added with serum to cells, which were incubated for a further 48 h.
Determination of cAMP in cultured cells and soleus muscle strips. cAMP concentration was measured in cells seeded in six-well plates and transfected as described. Following aspiration, cells were incubated for 15 min at room temperature in the presence of stated concentrations of ligands in binding buffer. Isobutylmethylxanthine (Sigma) was added to a final concentration of 0.5 mM together with stated concentrations of peptides, and the reaction terminated by aspiration. Cells were washed with 0.5 ml ice-cold TE buffer (10 mM Tris/HCl, 1 mM EDTA, pH 7.6) and rapidly transferred to eppendorf tubes in 1 ml of the same buffer, then boiled for 5 min. Following centrifugation at 12,000 g for 5 min at 4° C., then cooling on ice, duplicate 50 μl aliquots were analyzed for cAMP using an assay system based on competitive binding (Arnersham Pharmacia) according to the manufacturer's instructions.

For experiment [1], the system named is soleus muscle. The experiment is described as follows: cAMP content of isolated soleus muscle from normal fed rats. The format is cell-based, rat. As for the experimental part:
(§1) Soleus muscle preparation. All experiments were performed according to protocols approved by the Institutional Animal Ethics Committee. 5-6 week-old male Wistar rats (160 g) were kept on a 12:12-h light/dark cycle, and fed and watered ad libitum. Animals were anaesthetised with 50 mg/kg Nembutal (pentobarbitone sodium), then sacrificed by cervical dislocation. Soleus muscles were dissected under oxygenated KHB (118 mM NaCl, 4.75 mM KCl, 1.2 mM MgSO4, 24.8 mM NaHCO3, 1.2 mM KH2PO4, 2.54 mM CaCl2, 10 mM glucose, pH 7.4) and teased into halves, then incubated as described below.
For the measurement of cAMP in muscle, isolated soleus strips were incubated with stated concentrations of peptides, then lyophilized and deproteinized. Each strip was placed in 400 μl of 0.5 M HClO4 with 5 mM EDTA (phosphodiesterase inhibitor) and sonicated three times in 20 s bursts. Tubes were heated for 3-5 min in boiling water to coagulate protein, then centrifuged (12,000 g, 4° C., 2 min). Supernatant (300 μl) was taken and the pH adjusted to 7.0 with 75 μl of 2 M NH4OH. The samples were refrigerated (4° C., 2 h) to precipitate proteins, then centrifuged under the same conditions as above and 50 μl taken for cAMP measurement.

The test system of experiment [2] is soleus muscle. In words: Incorporation of D[14C(U)]glucose into glycogen in isolated incubated soleus muscle. In kind it is cell-based, rat. The conditions noted are these: for rate of D[14C(U)]glucose incorporation into glycogen: 10 nM peptide, 2 h; for EC50: isolated rat soleus muscle. How it is done:
as §1
Measurement of glycogen metabolism in isolated, incubated soleus muscle. […]. Glycogen was precipitated overnight at −20° C. with 96% ethanol (1.2 ml), followed by centrifugation at 8,000 g (15 min, 4° C.). Pellets were washed twice with the same amount of ethanol then dissolved in water (0.6 ml). Aliquots (0.3 ml) were analyzed for D[^14C(U)] glucose content by liquid scintillation spectrometry.
(§2) Data analysis. One way ANOVA, Dunnett's Multiple Comparisons Test, and unpaired Student's t-tests were used to calculate the statistical significance of differences, as appropriate. Dose-response curves were fitted to a sigmoidal dose-response algorithm, as follows: Y=minimum+(maximum−minimum)/([…] log ^(EC50^−X), for 2-DOG-uptake; and by a four parameter logistic model, Y=minimum+(maximum−minimum)/(1+10 log ^(EC50^−X)Hill-Coefficient) for total glycogen and [^14C]glucose incorporation. Calculations were performed using Prism v2.0 (GraphPad Software, San Diego, Calif.) to derive values for half-maximal effective concentration (EC50). Displacement curves derived for competition of bound radioligand with cold ligand in transfected cells were calculated according to a one site competition fit using Prism v2.0.

Experiment [3] deals with soleus muscle. In words: Total glycogen content in isolated incubated soleus muscle. The format is cell-based, rat. The conditions noted are these: for total glycogen content: 10 nM peptide, 2 h; for EC50: isolated rat soleus muscle. As for the experimental part:
as §1
Total glycogen content was measured in muscle strips by lyophilization followed by hydrolysis of glycogen to D-glucose with amyloglucosidase (Sigma) 20 U/100 ml in 0.2 M sodium acetate/acetic acid buffer, pH 4.8, and expressed as μmol ‘glucosyl’ units/g dry muscle weight. Free glucose in supernatant solutions was measured with a glucose/lactate analyzer (YSI 2300STAT, Yellow Springs Corporation) using D-glucose oxidase immobilized enzyme chemistry.
as §2

Where [4] appears, read: absence of insulin, control 4.8±0.3.
Setting [5] is: maximal insulin, control 27.6±1.4.
Setting [6] is: absence of insulin, basal 90.8±3.7.
Setting [7] is: insulin 23.7 nM, insulin alone 138±4.8.

As to rat CGRP-1, the “cAMP production in co-transfected myoblasts” value on ramp 1/C1ins− receptor is listed as “dose-dependent increases of cAMP production”. For the same substance, in the experiment with soleus muscle [1] (CGRP at both 5 nM and 100 nM, absence or presence of insulin (23.7 nM)), the “muscle cAMP content” value is reported as “significant increases in muscle cAMP content”. In addition, in the experiment on soleus muscle [1] (normal fed, 100 nM CGRP or adrenaline, control 3.9±0.2), the “cAMP content, agonist alone” value came out at 6.9 ± 0.8 pmol/mg. Besides, the “cAMP increase with 1 pM CGRP” value in the experiment on soleus muscle [1] (normal fed, 1 hr incubation) was “No significant cAMP increase”. In addition, the “rate of D[14C(U)]glucose incorporation into glycogen” value is given as 2.8±0.3 μmol/g dry-wt muscle/h in the experiment with soleus muscle [2] (setting [4]) and 13.7±0.7 μmol/g dry-wt muscle/h in the experiment with soleus muscle [2] (setting [5]). Moreover, the concentration for a half-maximal effect (EC50) in the experiment on soleus muscle [2] (absence of insulin) amounted to 3.1 nM; in the experiment on soleus muscle [2] (human insulin 23.7 nM) it was 0.7 nM; with soleus muscle [3] (absence of insulin), 3.2 nM; in the experiment with soleus muscle [3] (human insulin 23.7 nM), 4.3 nM. In addition, the total glycogen content with soleus muscle [3] (setting [6]) is given as 71.4±7.7 μmol/g dry-wt muscle/h; in the experiment with soleus muscle [3] (setting [7]), 113±6.9 μmol/g dry-wt muscle/h.
Rat amylin: the “cAMP production in co-transfected myoblasts” value on ramp 1/C1ins− receptor is listed as “dose-dependent increases of cAMP production”. In the experiment on soleus muscle [1] (10 nM or 100 nM amylin, absence or presence of insulin), the “maximal increase in cAMP content” value is reported as “about 2 fold”. In addition, the “effect of picomolar concentrations on muscle cAMP levels” value in the experiment with soleus muscle [1] (FIG. 13C) is listed as “no effect”. Also, the “rate of D[14C(U)]glucose incorporation into glycogen” value in the experiment on soleus muscle [2] (setting [4]) came to 2.7±0.8 μmol/g dry-wt muscle/h; in the experiment on soleus muscle [2] (setting [5]), 16.0±2.5 μmol/g dry-wt muscle/h. The EC50 in the experiment on soleus muscle [2] (absence of insulin) was 9.4 nM; in the experiment on soleus muscle [2] (human insulin 23.7 nM), 9.2 nM; with soleus muscle [3] (absence of insulin), 8 nM; in the experiment on soleus muscle [3] (human insulin 23.7 nM), 8.1 nM. For the same substance, the total glycogen content was 65.6±9.1 μmol/g dry-wt muscle/h in the experiment with soleus muscle [3] (setting [6]) and 86.7 μmol/g dry-wt muscle/h with soleus muscle [3] (setting [7]).
